ChEMBL document CHEMBL1131594, “Stereoisomers of cyclic urea HIV-1 protease inhibitors: synthesis and binding affinities” (J Med Chem, 1998)
pKi: −log10 of the molar value.

These compounds were tested against Human immunodeficiency virus type 1 protease (Human immunodeficiency virus 1, UniProt Q72874) (assay: Compound was tested for binding affinity against HIV-1 protease.).

Row | Structure (SMILES) | pKi
1 | O=C1N(Cc2ccccc2)[C@@H](Cc2ccccc2)[C@H](O)[C@@H](O)[C@H](Cc2ccccc2)N1Cc1ccccc1 | 6.25
2 | O=C1N(Cc2ccccc2)[C@H](Cc2ccccc2)[C@H](O)[C@@H](O)[C@@H](Cc2ccccc2)N1Cc1ccccc1 | 8.44
3 | O=C1N(Cc2ccccc2)[C@H](Cc2ccccc2)[C@@H](O)[C@H](O)[C@@H](Cc2ccccc2)N1Cc1ccccc1 | 5.87
4 | O=C1N(Cc2ccccc2)[C@@H](Cc2ccccc2)[C@H](O)[C@H](O)[C@H](Cc2ccccc2)N1Cc1ccccc1 | 5.77
5 | O=C1N(Cc2ccccc2)[C@H](Cc2ccccc2)[C@H](O)[C@@H](O)[C@H](Cc2ccccc2)N1Cc1ccccc1 | 7.19
6 | O=C1N(Cc2ccccc2)[C@H](Cc2ccccc2)[C@H](O)[C@H](O)[C@H](Cc2ccccc2)N1Cc1ccccc1 | 6.60
7 | O=C1N(Cc2ccccc2)[C@H](Cc2ccccc2)[C@@H](O)[C@H](O)[C@H](Cc2ccccc2)N1Cc1ccccc1 | 5.17
8 | O=C1N(Cc2ccccc2)[C@@H](Cc2ccccc2)[C@@H](O)[C@H](O)[C@H](Cc2ccccc2)N1Cc1ccccc1 | 5.42
